Values quoted from earlier work, collected in patent publication US20130005740A1, “PROCESS FOR PREPARATION OF OVER-THE-COUNTER GELATIN OR PECTIN-BASED DRUG DELIVERY” (7267207 CANADA LIMITED CORPORATION, priority 2009, published 2013).

Conditions: unlike aspirin

- stability in solution: stable in solution
Compound: CC(C)Cc1ccc(C(C)C(=O)O)cc1 (stereo not shown) [ibuprofen]
